From patent publication US8003687B2, “Esters of compounds in the leptomycin family” (Kosan Biosciences Incorporated, priority 2005, dated 2011)
Where two headings read alike, the source gives them in different places.

Assays:
MCF-7 = experiment: inhibition of tumor cell proliferation, MCF-7; assay type: cell-based, human
Method: (§1) The biological activity of compounds of this invention was evaluated by measuring their inhibitory effect on the proliferation of various tumor cell lines. MCF-7, A549, and SKOV-3 are human breast, lung, and ovary cancer cell lines, respectively. NCI/ADR is a multi-drug resistant breast cancer cell line. CCRF-CEM and CCRF-CEM/PTX are human leukemia cell lines, the latter being a paclitaxel-resistant subline.

NCI/ADR = experiment: inhibition of tumor cell proliferation, NCI/ADR; assay type: cell-based; conditions: read-out: Tumor Cell Line (IC50, nM) NCI/ADR
Method: as §1

CCRF-CEM = experiment: inhibition of tumor cell proliferation, CCRF-CEM; assay type: cell-based, human; conditions: read-out: Tumor Cell Line (IC50, nM) CCRF-CEM
Method: as §1

SKOV-3 = experiment: inhibition of tumor cell proliferation, SKOV-3; assay type: cell-based, human
Method: as §1

A549 = experiment: inhibition of tumor cell proliferation, A549; assay type: cell-based, human
Method: as §1

CCRF-CEM/PTX = experiment: inhibition of tumor cell proliferation, CCRF-CEM/PTX; assay type: cell-based, human; conditions: read-out: Tumor Cell Line (IC50, nM) CCRF-CEM/PTX
Method: as §1

[1] = Homo sapiens, MCF7, read-out: Tumor Cell Line (IC50, nM) MCF-7
[2] = Homo sapiens, SK-OV-3, read-out: Tumor Cell Line (IC50, nM) SKOV-3
[3] = Homo sapiens, A549, read-out: Tumor Cell Line (IC50, nM) A549

Compound	IC50 (MCF-7; [1]) [nM]	IC50 (NCI/ADR; Homo sapiens, NCI/ADR-RES) [nM]	IC50 (CCRF-CEM; Homo sapiens, CCRF-CEM) [nM]	IC50 (SKOV-3; [2]) [nM]	IC50 (A549; [3]) [nM]	IC50 (CCRF-CEM/PTX; Homo sapiens, CCRF-CEM) [nM]	also measured
CCC(=C/[C@H](C)C/C=C/C(C)=C/[C@@H](C)C(=O)[C@@H](C)[C@H](O)[C@@H](C)C/C(C)=C/C(=O)OCc1ccccc1)/C=C/[C@@H]1OC(=O)C=C[C@@H]1C [Compound 1]	3	38	2.7	17	5.3	4.8	
CCC(=C/[C@H](C)C/C=C/C(C)=C/[C@@H](C)C(=O)[C@@H](C)[C@H](O)[C@@H](C)C/C(C)=C/C(=O)OCC(=O)OC)/C=C/[C@@H]1OC(=O)C=C[C@@H]1C [Compound 2]	0.33	5.2	1.1	5.3	2.3	1	
CCC(=C/[C@H](C)C/C=C/C(C)=C/[C@@H](C)C(=O)[C@@H](C)[C@H](O)[C@@H](C)C/C(C)=C/C(=O)OCc1cccc2cccnc12)/C=C/[C@@H]1OC(=O)C=C[C@@H]1C [Compound 3]	3.7	270	5.6	24	5.3	14	
CCC(=C/[C@H](C)C/C=C/C(C)=C/[C@@H](C)C(=O)[C@@H](C)[C@H](O)[C@@H](C)C/C(C)=C/C(=O)O)/C=C/[C@@H]1OC(=O)C=C[C@@H]1C [LMB, Leptomycin B, reference compound]							IC50 (MCF-7; MCF7, human breast cancer cell line, read-out: Tumor Cell Line (IC50, nM) MCF-7): 0.29 nM; IC50 (NCI/ADR; Homo sapiens, NCI/ADR-RES, multi-drug resistant breast cancer cell line): 1 nM; IC50 (CCRF-CEM; CCRF-CEM, human leukemia cell line): 0.65 nM; IC50 (SKOV-3; SK-OV-3, human ovary cancer cell line, read-out: Tumor Cell Line (IC50, nM) SKOV-3): 1.5 nM; IC50 (A549; A549, human lung cancer cell line, read-out: Tumor Cell Line (IC50, nM) A549): 0.3 nM; IC50 (CCRF-CEM/PTX; CCRF-CEM, human leukemia cell line, paclitaxel-resistant subline): 0.41 nM
LMB methyl ester [Compound 4, reference compound]							IC50 (MCF-7; human breast cancer cell line, read-out: Tumor Cell Line (IC50, nM) MCF-7): 1.9 nM; IC50 (NCI/ADR; multi-drug resistant breast cancer cell line): 13.1 nM; IC50 (CCRF-CEM; human leukemia cell line): 0.55 nM; IC50 (SKOV-3; human ovary cancer cell line, read-out: Tumor Cell Line (IC50, nM) SKOV-3): 8.2 nM; IC50 (A549; human lung cancer cell line, read-out: Tumor Cell Line (IC50, nM) A549): 2.4 nM; IC50 (CCRF-CEM/PTX; human leukemia cell line, paclitaxel-resistant subline): 0.63 nM
